These results are taken from patent publication US11634396B2 (priority 2021, dated 2023).

In one assay the target is human mOR (Homo sapiens (Human), UniProt P35372). In words: cell-based.
human mOR, sequence (P35372 whole entry): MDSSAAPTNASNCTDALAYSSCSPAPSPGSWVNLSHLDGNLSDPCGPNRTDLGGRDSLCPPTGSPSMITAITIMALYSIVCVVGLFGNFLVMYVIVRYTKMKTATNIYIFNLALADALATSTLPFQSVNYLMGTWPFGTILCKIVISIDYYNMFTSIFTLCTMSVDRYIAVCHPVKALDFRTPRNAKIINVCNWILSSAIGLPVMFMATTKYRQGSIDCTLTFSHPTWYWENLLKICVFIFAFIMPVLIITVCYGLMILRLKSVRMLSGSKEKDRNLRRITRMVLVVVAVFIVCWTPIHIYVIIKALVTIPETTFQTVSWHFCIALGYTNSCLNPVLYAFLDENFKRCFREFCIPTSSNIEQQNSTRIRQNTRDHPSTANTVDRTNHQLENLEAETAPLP
Conditions: not given
The method, then: CHO Tag-lite human mOR stable cell line from Cisbio (NCBI accession number: NM_000914.3, Bedford, Mass.) were seeded and grown to approximately 80% confluence in Ham F-12 with 10% FBS, 50 U/ml penicillin, 50 μg/ml streptomycin, 2 mM Hepes, and 1 mg/ml geneticin (Invitrogen, Carlsbad, Calif.). Cells were then harvested using accutase (Corning. Coming, N.Y.), centrifuged at 1300 RPM for 5 min, and plated at 5000 cells per 5 μL per well in a 5× dilution of stimulation buffer consisting of the HTRF cAMP Gi kit, water and IBMX at 0.5 mM (Cisbio, Bedford, Mass.) in white HTRF low volume 384 well plates (Cisbio, Bedford, Mass.). Plates were then incubated at 37° C. in 5% CO2 for 10 minutes. For the agonist assay, forskolin was added to a final concentration of 4 μM. […] Test compounds were dissolved in DMSO and water, and then serially diluted to working concentrations such that the concentration of DMSO was less than 0.1%. Diluted test compounds were added at 2.5 μL per well, and plates were incubated at 37° C., and 5% CO2 for 15 minutes, and then at room temperature for 15 minutes. Next 5 μl/well of cAMP Eu-cryptate and 5 μl/well of anti-cAMP-d2 (both diluted 1:20 in lysis buffer) were added, and plates were incubated at room temperature for 1 hour. Following incubation, plates were read in a Synergy Neo2 multi-mode reader (Biotek, Winooski, Vt.). […] For the agonist assay, data was normalized using the maximal DAMGO response. Measurements were performed in triplicate and the dose response was fit using nonlinear regression.
Turning to `Cc1cc([C@@H](CC(=O)NC[C@H](Cc2ccc(C(N)=O)c(F)c2)N(C)C)C2(C(F)(F)F)CC2)cs1` [Compound 52, 4-((S)-2-(dimethylamino)-3-((S)-3-(5-methylthiophen-3-yl)-3-(1-(trifluoromethyl)cyclopropyl)propanamido)propyl)-2-fluorobenzamide], the concentration for half-maximal inhibition (IC50) (usually the concentration that inhibits the measured activity by half) is < 300 nM.

For the molecule `Cc1ccc([C@@H](CC(=O)NC[C@H](Cc2ccc(C(N)=O)c(F)c2)N(C)C)C2(C(F)(F)F)CC2)s1` [Compound 53, 4-((S)-2-(dimethylamino)-3-((S)-3-(5-methylthiophen-2-yl)-3-(1-(trifluoromethyl)cyclopropyl)propanamido)propyl)-2-fluorobenzamide], the IC50 was < 300 nM.

Take `CN(C)[C@H](CNC(=O)C[C@H](c1ccsc1)C1(C(F)(F)F)CC1)Cc1ccc(C(N)=O)c(F)c1` [Compound 54, 4-((S)-2-(dimethylamino)-3-((S)-3-(thiophen-3-yl)-3-(1-(trifluoromethyl)cyclopropyl)propanamido)propyl)-2-fluorobenzamide]: the IC50 is > 3000 nM.

With `CN(C)[C@H](CNC(=O)C[C@H](c1cncs1)C1(C(F)(F)F)CC1)Cc1ccc(C(N)=O)c(F)c1` [Compound 55, 4-((S)-2-(dimethylamino)-3-((S)-3-(thiazol-5-yl)-3-(1-(trifluoromethyl)cyclopropyl)propanamido)propyl)-2-fluorobenzamide], the IC50 was < 300 nM.

For the molecule `Cc1cnc([C@@H](CC(=O)NC[C@H](Cc2ccc(C(N)=O)c(F)c2)N(C)C)C2(C(F)(F)F)CC2)nc1` [Compound 57, 4-((S)-2-(dimethylamino)-3-((S)-3-(5-methylpyrimidin-2-yl)-3-(1-(trifluoromethyl)cyclopropyl)propanamido)propyl)-2-fluorobenzamide], the IC50 was in the range of 300 to 3000 nM.

As to `Cc1ncc([C@H](CC(=O)NC[C@H](Cc2ccc(C(N)=O)c(F)c2)N(C)C)C2(C(F)(F)F)CC2)s1` [Compound 58, 4-((S)-2-(dimethylamino)-3-((R)-3-(2-methylthiazol-5-yl)-3-(1-(trifluoromethyl)cyclopropyl)propanamido)propyl)-2-fluorobenzamide], the IC50 is > 3000 nM.

For the molecule `Cc1ncc([C@@H](CC(=O)NC[C@H](Cc2ccc(C(N)=O)c(F)c2)N(C)C)C2(C(F)(F)F)CC2)s1` [Compound 59, 4-((S)-2-(dimethylamino)-3-((S)-3-(2-methylthiazol-5-yl)-3-(1-(trifluoromethyl)cyclopropyl)propanamido)propyl)-2-fluorobenzamide], the IC50 is < 300 nM.

Consider `CN(C)[C@H](CNC(=O)C[C@H](c1ccncc1F)C1(C(F)(F)F)CC1)Cc1ccc(C(N)=O)c(F)c1` [Compound 61, 4-((S)-2-(dimethylamino)-3-((R)-3-(3-fluoropyridin-4-yl)-3-(1-(trifluoromethyl)cyclopropyl)propanamido)propyl)-2-fluorobenzamide], for which the IC50 is > 3000 nM.

`CN(C)[C@H](CNC(=O)C[C@H](CC1CC1)c1ccncc1)Cc1ccc(C(N)=O)c(F)c1` [Compound 62, 4-((S)-3-((S)-4-cyclopropyl-3-(pyridin-4-yl)butanamido)-2-(dimethylamino)propyl)-2-fluorobenzamide]: the IC50 is < 300 nM.

For the molecule `Cc1ncc([C@@H](CC(=O)NC[C@H](Cc2ccc(C(N)=O)c(F)c2)N(C)C)C2CC2)cn1` [Compound 67, 4-((S)-3-((S)-3-cyclopropyl-3-(2-methylpyrimidin-5-yl)propanamido)-2-(dimethylamino)propyl)-2-fluorobenzamide], the IC50 is > 3000 nM.

Consider `CN(C)[C@H](CNC(=O)CC(c1ccc(Cl)cn1)C1(C(F)(F)F)CC1)Cc1ccc(C(N)=O)c(F)c1` (stereo partly drawn) [Compound 69, 4-((2S)-3-(3-(5-chloropyridin-2-yl)-3-(1-(trifluoromethyl)cyclopropyl)propanamido)-2-(dimethylamino)propyl)-2-fluorobenzamide], for which the concentration for half-maximal inhibition (IC50) is < 300 nM.

With `CN(C)[C@H](CNC(=O)CC(c1ncccn1)C1(C(F)(F)F)CC1)Cc1ccc(C(N)=O)c(F)c1` (stereo partly drawn) [Compound 71, 4-[(2S)-2-(dimethylamino)-3-[3-(pyrimidin-2-yl)-3-[1-(trifluoromethyl)cyclopropyl]propanamido]propyl]-2-fluorobenzamide], the IC50 was < 300 nM.

For the molecule `CC(C)[C@H](CC(=O)NC[C@H](Cc1ccc(C(N)=O)c(F)c1)N(C)C)c1cccnc1` [Compound 78, 4-[(2S)-2-(dimethylamino)-3-[(3S)-4-methyl-3-(pyridin-3-yl)pentanamido]propyl]-2-fluorobenzamide], the IC50 is > 3000 nM.

Take `Cc1ncc([C@@H](CC(=O)NC[C@H](Cc2ccc(C(N)=O)cc2)N(C)C)C2(C(F)(F)F)CC2)cn1` [Compound 79, 4-((S)-2-(dimethylamino)-3-((R)-3-(2-methylpyrimidin-5-yl)-3-(1-(trifluoromethyl)cyclopropyl)propanamido)propyl)benzamide]: the IC50 was < 300 nM.

With `CN[C@H](CNC(=O)C[C@@H](c1ccccc1)C1(C(F)(F)F)CC1)Cc1ccc(C(N)=O)cc1` [Compound 82, 4-((S)-2-(methylamino)-3-((S)-3-phenyl-3-(1-(trifluoromethyl)cyclopropyl)propanamido)propyl)benzamide], the IC50 was > 3000 nM.

Still in this assay, the particulars now being: CHO Tag-lite human mOR stable cell line; forskolin 4 μM and DAMGO at EC90; read-out: mOR cAMP Antagonist Assay IC50.
As for `CC(C)C[C@H](CC(=O)NC[C@H](Cc1ccc(C(N)=O)c(F)c1)N(C)C)c1cccnc1` [Compound 60, 4-((S)-2-(dimethylamino)-3-((R)-5-methyl-3-(pyridin-3-yl)hexanamido)propyl)-2-fluorobenzamide], the IC50 is < 300 nM.

`CN(C)[C@H](CNC(=O)C[C@@H](c1cncc(F)c1)C(C)(C)C)Cc1ccc(C(N)=O)c(F)c1` [Compound 63, 4-((S)-2-(dimethylamino)-3-((R)-3-(5-fluoropyridin-3-yl)-4,4-dimethylpentanamido)propyl)-2-fluorobenzamide]: the IC50 was < 300 nM.

As for `CN(C)[C@H](CNC(=O)C[C@@H](CC1CC1)c1cncnc1)Cc1ccc(C(N)=O)c(F)c1` [Compound 64, 4-((S)-3-((R)-4-cyclopropyl-3-(pyrimidin-5-yl)butanamido)-2-(dimethylamino)propyl)-2-fluorobenzamide], the IC50 was < 300 nM.

Take `CN(C)[C@H](CNC(=O)CC(c1ccncc1)C1(C(F)(F)F)CC1)Cc1ccc(C(N)=O)c(F)c1` (stereo partly drawn) [Compound 70, 4-[(2S)-2-(dimethylamino)-3-[3-(pyridin-4-yl)-3-[1-(trifluoromethyl)cyclopropyl]propanamido]propyl]-2-fluorobenzamide]: the IC50 was > 3000 nM.

The assay is the same for the next values; noted with them: read-out: mOR cAMP Antagonist Assay IC50.
As for `Cc1cnc([C@@H](CC(=O)NC[C@H](Cc2ccc(C(N)=O)c(F)c2)N(C)C)C2(C(F)(F)F)CC2)s1` [Compound 56, 4-((S)-2-(dimethylamino)-3-((S)-3-(5-methylthiazol-2-yl)-3-(1-(trifluoromethyl)cyclopropyl)propanamido)propyl)-2-fluorobenzamide], the IC50 was 300 to 3000 nM.

With `CN(C)[C@H](CNC(=O)C[C@H](c1ccncc1)C1(C(F)(F)F)CC1)Cc1ccc2[nH]c(=O)ccc2c1` [Compound 103, (R)-N-((S)-2-(dimethylamino)-3-(2-oxo-1,2-dihydroquinolin-6-yl)propyl)-3-(pyridin-4-yl)-3-(1-(trifluoromethyl)cyclopropyl) propanamide], the IC50 was > 3000 nM.
